Data as given in patent US20150184246A1, “BIOMARKERS OF RESPONSE TO PROTEASOME INHIBITORS” (Millennium Pharmaceuticals, Inc., priority 2011, published 2015).
Structures can show the parent of a compound that is named as a salt. Where two headings read alike, the source gives them in different places.

Legend:
[1] = tested on: hematological and solid tumor xenograft models; conditions: range of hematological and solid tumor xenograft models; cited from earlier work
[2] = tested on: relapsed or refractory multiple myeloma; experiment: APEX phase 3 trial (039), bortezomib versus high-dose dexamethasone, EBMT response criteria; format: in vivo, human; conditions: for Complete response / Complete response achieved, number of patients / Median duration of response / One-year survival / complete response plus near-complete response / response rate (complete plus partial response (CR+PR)) / Median time to response: -039 trial; for Median time to response: both groups
Procedure: Patients who received dexamethasone were treated for a maximum of 280 days by the following method: received up to four 5-week treatment cycles, followed by up to five 4-week treatment cycles. Within each 5-week treatment cycle, the patient received dexamethasone 40 mg/day PO, once daily on Days 1 to 4, 9 to 12, and 17 to 20 of a 35-day cycle. Within each 4-week treatment cycle, the patient received dexamethasone 40 mg/day PO once daily on Days 1 to 4 of a 28 day cycle.
The following section presents more detailed information on the -039 trial. During the study, disease response was assessed according to the European Group for Blood and Marrow Transplant (EBMT) criteria as presented in Table 3.
Response and date of disease progression was determined by computer algorithm that integrated data from a central laboratory and case report forms from each clinical site, according to the Blade criteria (Table 3). […] See Richardson et al., supra.
Disease progression was determined by Blade criteria as described in Table 3 and above. […] The date of progression was determined by computer algorithm. P-value from log-rank test adjusted by actual randomization factors. See Richardson et al., supra.

[3] = tested on: multiple myeloma patients (NRAS / KRAS status of tumor); experiment: Pharmacogenomic analysis: pre-treatment NRAS/KRAS mutation status versus response, time-to-progression and overall survival; format: in vivo, human
Description: Patient samples and response criteria from patients participating in these studies, as well as the following additional studies described below were sought for use in pharmacogenomic analyses to identify markers associated with patient survival. […] The bone marrow aspirates were collected prior to the patient's treatment in the studies. […] Dexamethasone is a synthetic adrenocorticosteroid, CAS Registry No. […], administered as tablets (DECADRON® Merck & Co., Inc.). The trials are described in the following paragraphs.
Upon collection of patient bone marrow aspirate, the myeloma cells were enriched via rapid negative selection. The enrichment procedure employs a cocktail of cell-type specific antibodies coupled with an antibody that binds red blood cells RosetteSep (Stem Cell Technologies). The antibody cocktail has antibodies with the following specificity: CD14 (monocytes), CD2 (T and NK cells), CD33 (myeloid progenitors and monocytes), CD41 (platelets and megakaryocytes), CD45RA (naïve B and T cells) and CD66b (granulocytes). The antibodies cross-linked the non-myeloma cell types to the red blood cells in the samples. The bound cell types were removed using a modified ficoll density gradient. Myeloma cells were then collected and frozen. In the international studies, the first two samples from each site were collected and subjected to RNA isolation so that feedback on quantity and quality could be provided; ultimately Phase 2 and 3 trials provided a similar percentage of informative samples. Control bone marrow plasma cell samples were obtained from normal donors (AllCells, Berkeley, Calif.).
Flow through from the RNEASY® column was clarified by centrifugation, then concentrated about 10-fold with centrifugal ultrafilters (MICROCON® centrifugal filter device, YM-30 membrane (30 kDa limit), Millipore Corp. Billerica, Mass.). Impurities were removed using the Qiagen QIAMP® DNA Micro Kit. DNA from the sample was amplified using the Qiagen REPLI-G® WGA kit. Mutation status of DNA from 133 bone marrow tumor biopsies was determined by testing a panel of cancer genes and known tumor suppressors using the Sequenom (San Diego, Calif.) mass spectrometry genotype analysis system.
Rather, the platform interrogated tumor DNA only for specific sequences that were previously implicated in cancer (i.e. ‘hotspot’ mutations), relying largely on the prior knowledge that these are highly relevant in human cancer. The panel of mutations evaluated consisted of the ONCOCARTA™ version 1.0 and custom assays designed in collaboration with Sequenom and Millennium to expand the list of mutations surveyed to 514 known mutations in 41 oncogenes and tumor suppressor genes. Table 5 lists genes with mutations included in the panel and the number in parentheses 0 indicates the approximate number of mutations targeted in assays of the genes.
The custom assays were designed using TYPEPLEX® chemistry with single-base extension which determines the expected mass weight of the extend products to ensure separation between all potential peaks found within a multiplexed reaction. 15 nl of amplified and extended product is spotted on a 384 SpectroCHIP II using a Nanodispenser. A 3-point calibrant is added to every chip to ensure proper performance of the Sequenom Maldi-tof compact mass spectrometer. The SpectroCHIP II is placed in the Sequenom MALDI-TOF compact mass spectrometer. The mass spectrometer is set to fire a maximum of 9 acquisitions for each spot on the 384 well SpectroCHIP. TypePLEX Gold kit SpectroCHIP II is used following manufacturers recommended protocols.
Analysis is performed using Sequenom analysis software, MassARRAY® Typer Analyzer v4 with a mutation call filter of ≧8%, Signal:Noise>5 (background), followed by a manual inspections for false positives due to Impurities (ie Salts). Default threshold for positive mutant call is a minimal 10% mutant allele frequency, though signal as low as 3% may be detected. […]

[4] = tested on: multiple myeloma patients (t(4;14) / NRAS status of tumor); experiment: t(4;14) and NRAS status versus response in patients with tumor subtype data; format: in vivo, human
Description: Table 12 details the t(4;14) and NRAS status of the current dataset for patients both with tumor subtype data (Mulligan et al. (2007) Blood 109:3177-3188) and who were response-evaluable (n=40).

[5] = tested on: relapsed multiple myeloma; conditions: cited from earlier work
[6] = tested on: relapsed and refractory myeloma; conditions: cited from earlier work
[7] = tested on: t(4;14) translocation in MM; conditions: bortezomib alone or in combination; cited from earlier work
[8] = bortezomib n = 315, dexamethasone n = 312
[9] = bortezomib versus dexamethasone
[10] = in this set of patients (pharmacogenomic set)
[11] = totals (all samples of the 2-by-2 table)
[12] = NRAS mutant and not t(4; 14), N=32
[13] = NRAS wild type and not t(4; 14), N=32

CC(C)C[C@H](NC(=O)CNC(=O)c1cc(Cl)ccc1Cl)B1OC(=O)C(CC(=O)O)(CC(=O)O)O1 [Ixazomib citrate, 2,2′-{2-[(1R)-1-({[(2,5dichlorobenzoyl)amino]acetyl}amino)-3-methylbutyl]-5-oxo-1,3,2-dioxaborolane-4,4-diyl}diacetic acid]
anti-tumor activity [1]: has anti-tumor activity

CC(C)C[C@H](NC(=O)[C@H](Cc1ccccc1)NC(=O)c1cnccn1)B(O)O [bortezomib, N(pyrazine)carbonyl-L-phenylalanine-L-leucine boronic acid]
Complete response [2]: 6% | Complete response achieved, number of patients [2]: 20 patients | Median duration of response [2]: 8 months | One-year survival [2]: 80% | complete response plus near-complete response [2]: 13% | response rate (complete plus partial response (CR+PR)) [2]: 38% | Median time to response [2]: 43 days | decrease in risk of death ([2]; bortezomib group versus dexamethasone, first year after enrollment): 41% | Best Confirmed Response: CR + PR + MR [2, 8]: 146 (46) n (%) | Best Confirmed Response: Complete Response [2, 8]: 20 (6) n (%) | Best Confirmed Response: Minor Response [2, 8]: 25 (8) n (%) | Best Confirmed Response: Near CR: IF+ [2, 8]: 21 (7) n (%) | Best Confirmed Response: No Change [2, 8]: 137 (43) n (%) | Best Confirmed Response: Not Evaluable [2, 8]: 10 (3) n (%) | Best Confirmed Response: Overall Response Rate (CR + PR) [2, 8]: 121 (38) n (%) | Best Confirmed Response: Progressive Disease [2, 8]: 22 (7) n (%) | Best Confirmed Response: SWOG Remission [2, 8]: 46 (15) n (%) | Difference (95% CI) in CR + PR + MR [2, 9]: 0.12 (0.04, 0.19) | Difference (95% CI) in Complete Response [2, 9]: 0.06 (0.03, 0.09) | Difference (95% CI) in Minor Response [2, 9]: −0.09 (−0.14, −0.04) | Difference (95% CI) in Near CR: IF+ [2, 9]: 0.06 (0.03, 0.09) | Difference (95% CI) in No Change [2, 9]: −0.04 (−0.12, 0.04) | Difference (95% CI) in Not Evaluable [2, 9]: −0.01 (−0.04, 0.02) | Difference (95% CI) in Overall Response Rate (CR + PR) [2, 9]: 0.20 (0.14, 0.27) | Difference (95% CI) in Partial Response [2, 9]: 0.15 (0.08, 0.21) | Difference (95% CI) in Progressive Disease [2, 9]: −0.06 (−0.11, −0.01) | Difference (95% CI) in SWOG Remission [2, 9]: 0.09 (0.05, 0.14) | Non-response, number of patient samples ([3]; KRAS mutant): 8 | Response, number of patient samples ([3]; KRAS mutant): 9 | Non-response, number of patient samples ([3]; KRAS wild type): 34 | Response, number of patient samples ([3]; KRAS wild type): 23 | Non-response, number of patient samples ([3]; NRAS mutant): 14 | Response, number of patient samples ([3]; NRAS mutant): 1 | Non-response, number of patient samples ([3]; NRAS wild type): 28 | Response, number of patient samples ([3]; NRAS wild type): 31 | CR+PR rate [3, 10]: 32% | overall response rate [3, 10]: 42.3% | time-to-progression after bortezomib treatment ([3]; patients whose pre-treatment bone marrow tumor samples had NRAS mutations): significantly lower | Non-response, number of patient samples [3, 11]: 42 | Response, number of patient samples [3, 11]: 32 | Non-response, number of patients [4, 12]: 10 | Response, number of patients [4, 12]: 0 | Non-response, number of patients ([4]; NRAS mutant, n = 40 cohort): 10 | Response, number of patients ([4]; NRAS mutant, n = 40 cohort): 1 | Non-response, number of patients [4, 13]: 11 | Response, number of patients [4, 13]: 11 | Non-response, number of patients ([4]; NRAS wild type, n = 40 cohort): 13 | Response, number of patients ([4]; NRAS wild type, n = 40 cohort): 16 | Non-response, number of patients ([4]; Other subtypes, n = 40 cohort): 21 | Response, number of patients ([4]; Other subtypes, n = 40 cohort): 11 | Non-response, number of patients ([4]; t(4; 14), n = 40 cohort): 2 | Response, number of patients ([4]; t(4; 14), n = 40 cohort): 6 | complete response (CR)+partial response (PR) rate ([5]; bortezomib 1.0 mg/m^2, Study -024): 30% | complete response (CR)+partial response (PR) rate ([5]; bortezomib 1.3 mg/m^2, Study -024): 38% | CR+PR+MR, number of patients ([6]; Study -025, of 193 patients): 67 patients | CR+PR, number of patients ([6]; Study -025, of 193 patients): 53 patients | CR+PR rate to bortezomib alone ([6]; Study -025): 27% | overall response rate (CR+PR+minimal response (MR)) to bortezomib alone ([6]; Study -025): 35% | effect on poor prognosis associated with the t(4;14) translocation [7]: at least partially overcomes the poor prognosis

C[C@@H]1C[C@H]2[C@@H]3CCC4=CC(=O)C=C[C@]4(C)[C@@]3(F)[C@@H](O)C[C@]2(C)[C@@]1(O)C(=O)CO [dexamethasone]
Complete response [2]: < 1% | Complete response achieved, number of patients [2]: 2 patients | Median duration of response [2]: 5.6 months | One-year survival [2]: 66% | complete response plus near-complete response [2]: 2% | response rate (complete plus partial response (CR+PR)) [2]: 18% | Median time to response [2]: 43 days | Best Confirmed Response: CR + PR + MR [2, 8]: 108 (35) n (%) | Best Confirmed Response: Complete Response [2, 8]: 2 (<1) n (%) | Best Confirmed Response: Minor Response [2, 8]: 52 (17) n (%) | Best Confirmed Response: Near CR: IF+ [2, 8]: 3 (<1) n (%) | Best Confirmed Response: No Change [2, 8]: 149 (48) n (%) | Best Confirmed Response: Not Evaluable [2, 8]: 14 (4) n (%) | Best Confirmed Response: Overall Response Rate (CR + PR) [2, 8]: 56 (18) n (%) | Best Confirmed Response: Partial Response [2, 8]: 54 (17) n (%) | Best Confirmed Response: Progressive Disease [2, 8]: 41 (13) n (%) | Best Confirmed Response: SWOG Remission [2, 8]: 17 (5) n (%) | Non-response, number of patient samples ([3]; KRAS mutant): 6 | Response, number of patient samples ([3]; KRAS mutant): 3 | Non-response, number of patient samples ([3]; KRAS wild type): 14 | Response, number of patient samples ([3]; KRAS wild type): 8 | Non-response, number of patient samples ([3]; NRAS mutant): 3 | Response, number of patient samples ([3]; NRAS mutant): 3 | Non-response, number of patient samples ([3]; NRAS wild type): 17 | Response, number of patient samples ([3]; NRAS wild type): 8 | Non-response, number of patient samples [3, 11]: 20 | Response, number of patient samples [3, 11]: 11
